In test [1] the test system is 5/6 nephrectomized (Nx) rat model. Put plainly: 5/6 nephrectomized (Nx) rat model, Compound XIV by gastric gavage once daily. The class given is in vivo, male Wistar rats. To be noted: Nx rats, p<0.01. From the text: Male 6 week-old Wistar rats were subjected to 5/6 nephrectomy or sham operations. Under fluothane anesthesia, renal ablation was achieved by removing two-thirds of the left kidney followed by a right unilateral nephrectomy 7 days later. Sham rats underwent exposition of the kidneys and removal of the perirenal fat. Animals that underwent the sham operation were given vehicle (saline) and were used as controls. Nx animals were divided in groups receiving the vehicle or Compound XIV. Saline or Compound XIV was given by gastric gavage once daily up to the sacrifice. Serum glucose was measured every three weeks in order to assess the effect of the compound on serum glucose concentration in a renal disease model. Rats were sacrificed at day 126.

Test [2] has as its system streptozotocin-induced diabetes. Put plainly: Streptozotocin-induced diabetes model in rats, oral Compound I. The format is in vivo, male Sprague Dawley rats. On the procedure: Diabetes was induced by a single intraperitoneal administration of streptozotocin (65 mg/kg of body weight) in fasted male Sprague Dawley rats, weighing approximately 200-250 g. After 48 hours, rats with plasma glucose more than 10 mmole/L were enrolled and treated with vehicle or compounds. Streptozotocin is well known to induce […] toxicity. […] Ketonuria is a medical condition in which ketone bodies are present in the urine. It is seen in conditions in which the body produces excess ketones as an alternative source of energy. It is seen during starvation or more commonly in diabetes. […] Proteinuria is a medical condition in which an excess of protein is present in the urine. Proteinuria may be a sign of renal kidney damage. Since serum proteins are readily reabsorbed from urine, the presence of excess protein indicates either an insufficiency of absorption or impaired filtration. Diabetics may suffer from damaged nephrons and develop proteinuria. The most common cause of proteinuria is diabetes. […] Despite the available therapies of glycemic and blood pressure control, many patients continue to show progressive renal damage. Therefore, it is extremely important to identify novel interventions to halt the progression of diabetic nephropathy.

In test [3] the test system is diabetic mouse (db/db) model. Kind of test: Diabetic db/db uninephrectomized mouse model, oral Compound I. The class given is in vivo, male Lepr db (db/db) mice. To be noted: 100 mg/kg per day oral; day 69 to day 128; FIG. 7. The procedure: Male Lepr db (db/db) and age- and sex-matched control mice with the same genetic background (C57BL/6) were used. Animals were randomized using blood sugar measurement (5-hours starved) at week 6 and uninephrectomy (removal of right kidney) was performed. Sham animals (C57BL/6) underwent exposition of the right kidney. Animals that underwent the sham operation were given vehicle (saline) and were used as negative controls. C57BL/6 mice that were uninephrectomized were given vehicle and were used as positive controls. Db/db mice were treated with oral administration of compound I at 100 mg/kg per day for 131 days. Serum glucose was measured every two to four weeks. Oral glucose tolerance test was performed on 16-hours starved mice at day 112. […] Fluorescence was determined and GFR calculated based on a two-compartment model using nonlinear regression curve-fitting software.

Entries after “also recorded” stand apart in the source; their conditions may differ.

Turning to `CCCCCCCCC(Oc1ccc(C(=O)CCCCCCC)cc1)C(=O)[O-].[Na+]` (racemic) [Compound XIV, Sodium (RS)-2-[4-octanoylphenoxy]decanoate], the urinary proteins concentration result in test [1] (10 mg/kg, day 84 and 126, FIG. 6) is “significant (p<0.01) decrease”. Besides, the serum glucose concentration result in test [1] (50 mg/kg, day 42 to day 126, FIG. 5) is reported as “significant (p<0.01) decrease”.
Turning to `CCCCCc1cccc(CC(=O)[O-])c1.[Na+]` [Compound I], in test [2] (100 mg/kg oral, day 2 to day 62 post-streptozotocin, p<0.05, FIG. 1), the “level of increase in blood glucose (delta)” value is reported as “decrease significantly”. Moreover, in test [2] (100 mg/kg oral, vs STZ+ (diabetic) animals, FIG. 3), the “urinary protein (proteinuria)” value is reported as “completely abbrogated the presence of urinary protein”. In addition, the “ketone bodies in urine” value in test [2] (streptozotocin-diabetic rats, treated vs untreated, p<0.05, FIG. 2) is listed as “significantly reduce the appearance of ketone bodies in the urine; also recorded: significantly (p<0.05) reduced”. Moreover, in test [3], the “serum glucose concentration (percent increase vs C57BL/6 sham)” value is listed as “significant decrease”.
